Measurements from patent US11919965B2, “Methods of treating multiple myeloma with bispecific anti-BCMA x anti-CD3 antibodies” (Regeneron Pharmaceuticals, Inc., priority 2019, dated 2024).
Like-named read-outs stand apart in the source and are kept apart here.

What was measured:
[1] = test system: Jurkat/NFATLuc.3C7 reporter cells with NCI-H929 cells (BCMA positive); test: Jurkat/NFATLuc reporter bioassay (T-cell activation); format: cell-based, human
Procedure: (§1) Activity of the anti-BCMA×anti-CD3 bispecific antibodies were assessed in a Jurkat/NFATLuc reporter bioassay utilizing several cell lines with varying levels of BCMA surface expression. The Jurkat cells were engineered to express an NFAT-luciferase reporter (Jurkat/NFATLuc.3C7), and 50,000 Jurkat reporter cells were combined with 50,000 BCMA positive (Daudi, MM1-S, NCI-H929, OPM-2, RPMI-8226, MOLP-8, or Raji) or BCMA negative (HEK293) cells in Thermo Nunclon delta 96 well white microwell plates (Thermo Scientific, Cat #136102) in 50 ul of assay media (RPMI media with 10% FBS and 1% P/S/G). Three-fold serial dilutions of the BCMA×CD3 bispecific antibodies (mAb25441D or mAb25442D), or a bivalent anti-BCMA antibody (mAb21581) were immediately added in 50 uL of assay buffer. The plates were gently agitated and incubated in a 37° C., 5% CO2 incubator for 4-6 hours. NFAT-Luciferase activity was determined using Promega One-Glo (Cat #E6130) and a Perkin Elmer Envision plate reader. RLU were plotted in GraphPad Prism using a four-parameter logistic equation over a 12-point response curve to calculate EC50 values. The no antibody treatment condition for each dose-response curve is also included in the analysis as a continuation of the three-fold serial dilution and is represented as the lowest dose. The signal to noise (S:N) is determined by taking the ratio of the highest RLU on the curve to the lowest.

[2] = test system: Jurkat/NFATLuc.3C7 reporter cells with OPM-2 cells (BCMA positive); test: as above; format: cell-based, human
Procedure: as §1

[3] = test system: BCMA+ MOLP-8-luciferase tumors; test: Xenogenic tumor model, i.v. MOLP-8-luciferase in PBMC-engrafted NSG mice, bioluminescence (Example 14); format: in vivo, mouse; details: 4 mg/kg
Procedure: To determine the in vivo efficacy of anti-BCMA×anti-CD3 bispecific antibodies (Abs), a xenogenic tumor study was performed. On day −11, immunodeficient NOD.Cg-Prkdc^scidII2rg^tm1Wjl/SzJ (NSG) mice were intraperitoneally injected with 4×10^6 human peripheral blood mononuclear cells (PBMC) from a normal, healthy donor. On day 0, the mice were intravenously administered 2×10^6 BCMA^+ MOLP-8 human multiple myeloma tumor cells that were engineered to also express firefly luciferase (MOLP-8-luciferase cells). […] The mice were administered these Abs twice more on days 3 and 7, for a total of three doses. Tumor growth was assessed over 48 days by measuring tumor bioluminescence (BLI) in anesthetized animals. As a positive control, a group of mice (n=5) was given only MOLP-8-luciferase cells, but not PBMC or antibody.
Implantation and measurement of xenogenic tumors: On day −11, immunodeficient NOD.Cg-Prkdc^scidII2rg^tm1Wjl/SzJ (NSG) mice were intraperitoneally injected with 5×10^6 human PBMC from a normal, healthy donor. On day 0, the mice were intravenously administered 2×10^6 BCMA^+ MOLP-8-luciferase cells. […] The mice were administered these Abs twice more on days 3 and 7, for a total of three doses. Tumor growth was assessed over 48 days by measuring tumor BLI in anesthetized animals. As a positive control, a group of mice (n=5) was given only MOLP-8-luciferase cells, but not PBMC or antibody.
Measurement of xenogenic tumor growth: BLI imaging was used to measure tumor burden. Mice were injected IP with 150 mg/kg of the luciferase substrate D-luciferin suspended in PBS. Five minutes after this injection, BLI imaging of the mice was performed under isoflurane anesthesia using the Xenogen IVIS system. Image acquisition was carried out with the field of view at D, subject height of 1.5 cm, and medium binning level with automatic exposure time determined by the Living Image Software. BLI signals were extracted using Living Image software: regions of interest were drawn around each tumor mass and photon intensities were recorded as p/s/cm2/sr.

[4] = test system: primary cynomolgus monkey CD138+ plasma cells; test: Autologous T cell-mediated killing of plasma cells and T cell activation (% CD25 upregulation); format: cell-based
Procedure: (§2) The specific killing of enriched CD138^+ human or cynomolgus monkey plasma cells by unstimulated autologous T cells was assessed by flow cytometry. Human or cynomolgus bone marrow aspirates and blood were provided within 24 hours of harvest. CD138^+ plasma cells were enriched from bone marrow by positive selection using the EasySep Human CD138^+ Positive Selection kit according to the manufacturer's instructions. PBMC from whole blood were isolated by density separation. PBMC were labeled with 1 μM of VYBRANT™ CFDA-SE fluorescent tracking dye. […] At the end of the culture, surviving CD138^+ plasma cells were analyzed by flow cytometry, utilizing fixable LIVE/DEAD dye and plasma cell specific cell surface markers. Percent viability was normalized to control condition (plasma cells in the presence of PBMC only). T cell activation was assessed by flow cytometry. Activation is reported as the percentage of CD2^+/CD4^+ or CD2^+/CD8^+/CD16^− T cells expressing CD25. Percent T cell activation was normalized to control condition (plasma cells in the presence of PBMC only).

[5] = test system: primary human CD138+ plasma cells; test: as above; format: cell-based; details: for EC50: read-out: T Cell Activation (% CD25 Upregulation) CD8+ T cells EC50
Procedure: as §2

[6] = test system: Jurkat/NFATLuc.3C7 reporter cells with MOLP-8 cells (BCMA positive); test: Jurkat/NFATLuc reporter bioassay (T-cell activation); format: cell-based, human
Procedure: as §1

[7] = test system: Jurkat/NFATLuc.3C7 reporter cells with Daudi cells (BCMA positive); test: as above; format: cell-based, human
Procedure: as §1

## REGN5458: anti-BCMA×anti-CD3 bispecific antibody: mAb21581 BCMA heavy chain, mAb7221G CD3 heavy chain and common light chain; SEQ ID NOs 126, 127, 129
[1]
  S:N (highest RLU to lowest): 39
[2]
  S:N (highest RLU to lowest): 8
[3]
  Radiance [p/s/cm2^2/sr] 8 days post-implantation (mean ± SEM): 5.66E+05 ± 1.97E+04 p/s/cm2^2/sr
  Radiance [p/s/cm2^2/sr] 22 days post-implantation (mean ± SEM): 1.08E+06 ± 1.71E+05 p/s/cm2^2/sr
  Radiance [p/s/cm2^2/sr] 24 days post-implantation (mean ± SEM): 1.02E+06 ± 1.99E+05 p/s/cm2^2/sr
  Radiance [p/s/cm2^2/sr] 28 days post-implantation (mean ± SEM): 3.56E+06 ± 6.34E+05 p/s/cm2^2/sr
  Radiance [p/s/cm2^2/sr] 30 days post-implantation (mean ± SEM): 6.92E+06 ± 1.40E+06 p/s/cm2^2/sr
  Radiance [p/s/cm2^2/sr] 34 days post-implantation (mean ± SEM): 2.65E+07 ± 1.36E+07 p/s/cm2^2/sr
  Radiance [p/s/cm2^2/sr] 37 days post-implantation (mean ± SEM): 4.52E+07 ± 1.40E+07 p/s/cm2^2/sr
[3]; three doses
  tumor growth: delayed the growth
[4]; Cynomolgus Monkey Donor 1 plasma cells, autologous T cells, maximum
  T Cell Activation (% CD25 Upregulation) CD8+ T cells % Activation: 12%
[4]; Cynomolgus Monkey Donor 1 plasma cells, autologous T cells, read-out: T Cell Activation (% CD25 Upregulation) CD8+ T cells EC50
  EC50: 0.0224 µM
[4]; Cynomolgus Monkey Donor 2 plasma cells, autologous T cells, maximum
  T Cell Activation (% CD25 Upregulation) CD4+ T cells % Activation: 16%
[4]; Cynomolgus Monkey Donor 2 plasma cells, autologous T cells, read-out: T Cell Activation (% CD25 Upregulation) CD4+ T cells EC50
  EC50: ~0.0181 µM
[4]; donor 1
  maximum percent T cell activation, CD8+ T cells: 12%
[4]; donor 1, read-out: EC50, CD4+ T cell activation
  EC50: 0.0281 µM
[4]; donor 1, read-out: EC50, CD8+ T cell activation
  EC50: 0.0224 µM
[4]; donor 2
  maximum percent T cell activation, CD4+ T cells: 16%
[4]; donor 2, read-out: EC50, CD4+ T cell activation
  EC50: 0.0181 µM
[4]; donor 2, read-out: EC50, CD8+ T cell activation
  EC50: 0.0767 µM
[5]; Human Donor 1 plasma cells, autologous primary human T cells
  EC50: 0.000214 µM
[5]; Human Donor 2 plasma cells, autologous primary human T cells, maximum
  T Cell Activation (% CD25 Upregulation) CD8+ T cells % Activation: 36%
[5]; Human Donor 2 plasma cells, autologous primary human T cells
  EC50: 0.00086 µM
[5]; donor 2
  maximum percent CD8+ T cell activation: 36%

## REGN5459: anti-BCMA×anti-CD3 bispecific antibody: mAb21581 BCMA heavy chain, mAb7221G20 CD3 heavy chain and common light chain; SEQ ID NOs 126, 128, 129
[6]
  S:N (highest RLU to lowest): 31
[7]
  S:N (highest RLU to lowest): 25
